# Reference: EPA's ToxRefDB 2
# Tests used:
# [1] = tested on: dog; settings: Subchronic oral toxicity in nonrodent, beagle, Feed, dose end: 3 month
# [2] = tested on: rat; settings: Multigenerational reproductive toxicity study, sprague dawley, Oral, Feed, dose end: 2 generation
# [3] = tested on: dog; settings: Chronic toxicity, beagle, Oral, Capsule, dose end: 12 month
# [4] = tested on: mouse; settings: Carcinogenicity, cd1, Oral, Feed, dose end: 78 week, group: systemic
# [5] = tested on: rat; settings: Subchronic oral toxicity in rodents, sprague dawley, Feed, dose end: 13 week
# [6] = tested on: rabbit; settings: Prenatal developmental toxicity study, new zealand white, Oral, Gavage/Intubation, dose end: 19 GD
# [7] = tested on: rat; settings: Prenatal developmental toxicity study, Sprague-Dawley, Oral, Gavage/Intubation, dose end: 15 GD
# [8] = tested on: rat; settings: Subchronic oral toxicity in rodents, wistar, Feed, dose end: 13 week, group: systemic
# [9] = tested on: mouse; settings: Carcinogenicity, other, Oral, Feed, dose end: 18 month, group: systemic
# [10] = tested on: mouse; settings: Subchronic oral toxicity in rodents, other, Feed, dose end: 13 week, group: systemic
# [11] = tested on: rabbit; settings: Prenatal developmental toxicity study, new zealand white, Oral, Gavage/Intubation, dose end: 18 GD
# [12] = tested on: rat; settings: Prenatal developmental toxicity study, sprague dawley, Oral, Gavage/Intubation, dose end: 15 GD
# [13] = tested on: mouse; settings: Combined chronic toxicity/carcinogenicity, other, Oral, Feed, dose end: 80 week, group: systemic
# [14] = tested on: rat; settings: Subchronic oral toxicity in rodents, sprague dawley, Gavage/Intubation, dose end: 91 day, group: systemic
# [15] = group: cholinesterase, cholinesterase / cholinesterase / cholinesterase / plasma cholinesterase (che)
# [16] = group: systemic, systemic / in life observation / clinical signs / salivation + systemic / clinical chemistry / urea nitrogen / urea nitrogen + systemic / in…
# [17] = group: offspring, systemic / in life observation / body weight / offspring (pup) weight
# [18] = group: parental, systemic / in life observation / body weight / body weight
# [19] = group: parental, systemic / in life observation / body weight / body weight + systemic / pathology microscopic / heart / cardiomyopathy
# [20] = group: systemic, systemic / pathology microscopic / thymus / atrophy
# [21] = systemic / in life observation / body weight / body weight + systemic / in life observation / food consumption / food consumption
# [22] = group: cholinesterase, cholinesterase / cholinesterase / cholinesterase / brain cholinesterase (che) + cholinesterase / cholinesterase / cholinesterase / plasma …
# [23] = group: systemic, systemic / in life observation / body weight / body weight + systemic / in life observation / body weight / body weight gain + systemic / in…
# [24] = group: systemic, systemic / in life observation / body weight / body weight + systemic / in life observation / body weight / body weight gain + systemic / …
# [25] = group: cholinesterase, cholinesterase / cholinesterase / cholinesterase / erythrocyte cholinesterase (che) + cholinesterase / cholinesterase / cholinesterase / …
# [26] = group: developmental, systemic / in life observation / body weight / fetal weight
# [27] = group: maternal, systemic / in life observation / body weight / body weight + systemic / in life observation / clinical signs / fur (altered appearance) + …
# [28] = group: developmental, developmental / developmental malformation / bone / unossified + developmental / developmental malformation / trunk / omphalocele + systemic…
# [29] = group: maternal, reproductive / reproductive performance / resorptions / resorptions + systemic / in life observation / body weight / body weight + systemic…
# [30] = systemic / clinical chemistry / aspartate aminotransferase (ast/sgot) / aspartate aminotransferase (ast/sgot) + systemic / in life …
# [31] = systemic / clinical chemistry / immunoglobulins / immunoglobulins
# [32] = systemic / clinical chemistry / immunoglobulins / immunoglobulins + systemic / pathology microscopic / thymus / cyst
# [33] = systemic / organ weight / adrenal gland / absolute
# [34] = systemic / organ weight / adrenal gland / absolute + systemic / clinical chemistry / albumin / albumin + systemic / clinical chemistry / …
# [35] = group: developmental, systemic / in life observation / body weight / fetal weight + developmental / developmental malformation / bone / unossified
# [36] = group: maternal, systemic / in life observation / body weight / body weight gain + reproductive / reproductive performance / aborted / aborted + systemic / …
# [37] = group: developmental, developmental / developmental malformation / bone / unossified + systemic / in life observation / body weight / fetal weight
# [38] = group: maternal, systemic / in life observation / body weight / body weight gain + systemic / in life observation / clinical signs / poor general condition
# [39] = group: maternal, systemic / in life observation / body weight / body weight gain + systemic / in life observation / clinical signs / poor general condition…
# [40] = systemic / in life observation / mortality / mortality + systemic / pathology microscopic / kidney / hydronephrosis + systemic / clinical …
smiles,measurement,setting,value
CCCN(CCC)C(=O)SCC [EPTC],LEL,[1]; [15],45 mg/kg/day
same,LOAEL,[1]; [15],45 mg/kg/day
same,NEL,[1]; [15],15 mg/kg/day
same,NOAEL,[1]; [15],15 mg/kg/day
same,LOAEL,"[1]; group: systemic, systemic / in life observation / clinical signs / salivation",45 mg/kg/day
same,LEL,[1]; [16],45 mg/kg/day
same,NEL,[1]; [16],15 mg/kg/day
same,NOAEL,[1]; [16],15 mg/kg/day
same,LEL,[2]; [17],40 mg/kg/day
same,LOAEL,[2]; [17],40 mg/kg/day
same,NEL,[2]; [17],10 mg/kg/day
same,NOAEL,[2]; [17],10 mg/kg/day
same,NEL,[2]; [18],2.5 mg/kg/day
same,NOAEL,[2]; [18],2.5 mg/kg/day
same,LEL,[2]; [19],10 mg/kg/day
same,LOAEL,[2]; [19],10 mg/kg/day
same,LEL,[3]; [15],8 mg/kg/day
same,LOAEL,[3]; [15],8 mg/kg/day
same,NEL,[3]; [15],1 mg/kg/day
same,NOAEL,[3]; [15],1 mg/kg/day
same,NOAEL,"[3]; group: systemic, systemic / pathology microscopic / lung / fibrosis + systemic / pathology microscopic / lung / inflammation + systemic / clinical chemistry…",1 mg/kg/day
same,LOAEL,"[3]; group: systemic, systemic / pathology microscopic / lung / fibrosis + systemic / pathology microscopic / lung / inflammation + systemic / in life observation…",8 mg/kg/day
same,LEL,[3]; [20],1 mg/kg/day
same,NEL,[3]; [20],< 1 mg/kg/day
same,LEL,[4]; systemic / in life observation / body weight / body weight,90 mg/kg/day
same,LOAEL,[4]; [21],270 mg/kg/day
same,NEL,[4]; [21],30 mg/kg/day
same,NOAEL,[4]; [21],90 mg/kg/day
same,LOAEL,[5]; [22],> 120 mg/kg/day
same,NOAEL,[5]; [22],≥ 120 mg/kg/day
same,LEL,[5]; [15],72 mg/kg/day
same,NEL,[5]; [15],15 mg/kg/day
same,LOAEL,[5]; [23],15 mg/kg/day
same,NOAEL,[5]; [23],3 mg/kg/day
same,LEL,[5]; [24],3 mg/kg/day
same,NEL,[5]; [24],< 3 mg/kg/day
same,LEL,[6]; [25],5 mg/kg/day
same,LOAEL,[6]; [25],5 mg/kg/day
same,NEL,[6]; [25],< 5 mg/kg/day
same,NOAEL,[6]; [25],< 5 mg/kg/day
same,LEL,[6]; [26],300 mg/kg/day
same,LOAEL,[6]; [26],300 mg/kg/day
same,NEL,[6]; [26],40 mg/kg/day
same,NOAEL,[6]; [26],40 mg/kg/day
same,LEL,[6]; [27],300 mg/kg/day
same,LOAEL,[6]; [27],300 mg/kg/day
same,NEL,[6]; [27],40 mg/kg/day
same,NOAEL,[6]; [27],40 mg/kg/day
same,LEL,[7]; [28],300 mg/kg/day
same,LOAEL,[7]; [28],300 mg/kg/day
same,NEL,[7]; [28],100 mg/kg/day
same,NOAEL,[7]; [28],100 mg/kg/day
same,LEL,"[7]; group: maternal, reproductive / reproductive performance / postimplantation loss / postimplantation loss",100 mg/kg/day
same,LOAEL,[7]; [29],300 mg/kg/day
same,NEL,[7]; [29],30 mg/kg/day
same,NOAEL,[7]; [29],100 mg/kg/day
[OH-].c1cc[c]([Sn+]([c]2ccccc2)[c]2ccccc2)cc1 [Triphenyltin hydroxide],LEL,[8]; systemic / clinical chemistry / aspartate aminotransferase (ast/sgot) / aspartate aminotransferase (ast/sgot) + systemic / clinical …,1.56 mg/kg/day
same,LOAEL,[8]; [30],7.41 mg/kg/day
same,NEL,[8]; [30],0.3 mg/kg/day
same,NOAEL,[8]; [30],1.56 mg/kg/day
same,LOAEL,[9]; [31],0.85 mg/kg/day
same,NOAEL,[9]; [31],< 0.85 mg/kg/day
same,LEL,[9]; [32],0.85 mg/kg/day
same,NEL,[9]; [32],< 0.85 mg/kg/day
same,LEL,[10]; [33],4.12 mg/kg/day
same,LOAEL,[10]; [33],4.12 mg/kg/day
same,NEL,[10]; [34],0.88 mg/kg/day
same,NOAEL,[10]; [34],0.88 mg/kg/day
same,LOAEL,[11]; [26],0.9 mg/kg/day
same,LEL,[11]; [35],0.9 mg/kg/day
same,NEL,[11]; [35],0.3 mg/kg/day
same,NOAEL,[11]; [35],0.3 mg/kg/day
same,LOAEL,"[11]; group: maternal, systemic / in life observation / body weight / body weight gain",0.3 mg/kg/day
same,NEL,[11]; [36],0.1 mg/kg/day
same,NOAEL,[11]; [36],0.1 mg/kg/day
same,LEL,"[11]; group: maternal, systemic / in life observation / body weight / body weight gain + systemic / in life observation / body weight / body weight + systemic / in…",0.3 mg/kg/day
same,LEL,[12]; [37],8 mg/kg/day
same,LOAEL,[12]; [37],8 mg/kg/day
same,NEL,[12]; [37],2.8 mg/kg/day
same,NOAEL,[12]; [37],2.8 mg/kg/day
same,LEL,[12]; [38],2.8 mg/kg/day
same,LOAEL,[12]; [38],2.8 mg/kg/day
same,NEL,[12]; [39],1 mg/kg/day
same,NOAEL,[12]; [39],1 mg/kg/day
same,LEL,[13]; [32],0.85 mg/kg/day
same,NEL,[13]; [32],< 0.85 mg/kg/day
same,NOAEL,[13]; systemic / clinical chemistry / immunoglobulins / immunoglobulins + systemic / pathology microscopic / thymus / cyst + systemic / in life …,3.5 mg/kg/day
same,LOAEL,[13]; systemic / in life observation / body weight / body weight gain + systemic / organ weight / liver / absolute + systemic / organ weight / …,15.2 mg/kg/day
[PH]=[Zn].[PH]=[Zn].[Zn] [Zinc phosphide],NEL,[14]; systemic / in life observation / clinical signs / body cold to touch + systemic / in life observation / clinical signs / salivation + …,0.1 mg/kg/day
same,LOAEL,[14]; systemic / in life observation / mortality / mortality + systemic / pathology microscopic / kidney / hydronephrosis,1 mg/kg/day
same,LEL,[14]; [40],1 mg/kg/day
same,NOAEL,[14]; [40],0.1 mg/kg/day
